Earlier results as cited in publication PMC3261373 (Bioconjugate Chemistry, 2011).
Blank lines part the entries; values can stand above or below the compound they belong to.

How the values were obtained:
[1] = test system: angiogenesis and tumor growth; conditions: in words
αvβ3-integrin = conditions: in vivo blocking studies

Compound: CC(C)C[C@H](NC(=O)[C@@H](O)[C@H](N)Cc1ccccc1)C(=O)O [bestatin]
effect on angiogenesis and tumor growth [1]: suppressed angiogenesis and tumor growth
mode of APN inhibition (APN; in words): slow-binding competitive inhibitor

Compound: cyclic CNGRC [cyclic CNGRC peptide]
binding affinity to APN (APN; enzyme inhibition studies): moderate binding affinity
binding to APN/CD13 (APN; in words): known to bind APN/CD13

binding to tumors and tissues expressing αvβ3-integrin (αvβ3-integrin): selective binding
Compound: cyclic CisoDGRC [^99mTc-labeled cyclic CisoDGRC conjugate]
